The values that follow come from patent publication US20080305500A1, “NOVEL CELL-BASED ASSAYS FOR IDENTIFYING ENHANCERS OR INHIBITORS OF T1R TASTE RECEPTORS (T1R2/T1R3 SWEET) AND UMAMI (T1R1/T1R3 UMAMI) TASTE RECEPTORS” (Senomyx, Inc., priority 2007, published 2008).

SMILES strings stand for the structures. Where two headings read alike, the source gives them in different places.

The target of the assay is T1, human sweet receptor (T1R2 and T1R3) (Homo sapiens, UniProt Q7RTX0+Q8TE23).
T1 construct: expressed in transfected cells; host or cells: HEK293 cells co-expressing Galpha15
T1 sequence (Q8TE23 20-839): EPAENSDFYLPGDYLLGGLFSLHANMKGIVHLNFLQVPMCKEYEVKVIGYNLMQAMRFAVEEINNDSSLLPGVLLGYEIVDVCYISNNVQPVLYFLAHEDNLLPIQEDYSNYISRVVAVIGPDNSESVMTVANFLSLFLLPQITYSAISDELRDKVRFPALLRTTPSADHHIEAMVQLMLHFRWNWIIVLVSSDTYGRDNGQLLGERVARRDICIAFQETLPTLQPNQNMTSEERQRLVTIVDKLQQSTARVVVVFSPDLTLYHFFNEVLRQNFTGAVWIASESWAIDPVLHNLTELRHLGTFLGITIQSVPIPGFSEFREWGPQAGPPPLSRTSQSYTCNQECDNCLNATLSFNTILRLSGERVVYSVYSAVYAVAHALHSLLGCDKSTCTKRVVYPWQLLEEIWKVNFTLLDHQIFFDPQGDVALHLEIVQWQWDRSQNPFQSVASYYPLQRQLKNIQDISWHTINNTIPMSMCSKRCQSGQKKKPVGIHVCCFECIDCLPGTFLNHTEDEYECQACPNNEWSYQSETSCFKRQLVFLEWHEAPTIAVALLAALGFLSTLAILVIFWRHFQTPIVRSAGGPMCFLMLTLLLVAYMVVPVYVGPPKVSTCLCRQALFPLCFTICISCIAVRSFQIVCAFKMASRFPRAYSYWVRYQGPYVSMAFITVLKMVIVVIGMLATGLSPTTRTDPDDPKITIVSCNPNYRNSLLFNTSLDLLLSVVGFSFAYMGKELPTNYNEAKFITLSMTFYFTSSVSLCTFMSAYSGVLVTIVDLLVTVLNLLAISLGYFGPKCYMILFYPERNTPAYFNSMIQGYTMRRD
T1 sequence (Q7RTX0 21-852): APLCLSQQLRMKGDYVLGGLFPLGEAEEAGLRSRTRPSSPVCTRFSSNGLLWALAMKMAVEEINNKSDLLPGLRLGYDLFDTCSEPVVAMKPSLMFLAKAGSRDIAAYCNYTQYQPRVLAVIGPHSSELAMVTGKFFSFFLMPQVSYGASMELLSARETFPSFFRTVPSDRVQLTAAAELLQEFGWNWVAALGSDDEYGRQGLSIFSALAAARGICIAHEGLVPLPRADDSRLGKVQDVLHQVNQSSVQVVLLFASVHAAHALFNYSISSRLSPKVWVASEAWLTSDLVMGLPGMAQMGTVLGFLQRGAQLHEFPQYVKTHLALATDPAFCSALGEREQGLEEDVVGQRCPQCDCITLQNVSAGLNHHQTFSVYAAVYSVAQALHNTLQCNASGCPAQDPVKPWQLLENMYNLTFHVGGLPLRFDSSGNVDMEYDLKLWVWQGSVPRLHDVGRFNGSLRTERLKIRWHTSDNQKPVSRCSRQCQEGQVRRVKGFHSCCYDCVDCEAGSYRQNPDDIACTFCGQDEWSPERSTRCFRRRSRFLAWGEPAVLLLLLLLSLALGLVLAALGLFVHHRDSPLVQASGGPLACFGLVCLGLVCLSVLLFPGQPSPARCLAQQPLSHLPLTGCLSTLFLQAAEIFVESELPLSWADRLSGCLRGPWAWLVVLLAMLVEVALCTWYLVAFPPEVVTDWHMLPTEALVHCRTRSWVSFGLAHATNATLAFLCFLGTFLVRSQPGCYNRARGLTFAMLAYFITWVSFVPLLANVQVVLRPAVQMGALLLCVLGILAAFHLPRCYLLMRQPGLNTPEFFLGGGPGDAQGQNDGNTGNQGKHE
The experiment in a line: Calcium imaging (Fluo3AM/FLIPR) sweet receptor enhancer assay in hT1R2/hT1R3-HEK293 Galpha15 cells, with pre-incubation step. Type of assay: cell-based. The following applies: read-out: potency of Sucralose (dose-response). The protocol:
In the subject assays the receptor or cells expressing same will be placed in a suitable environment that facilitates the receptor or cells to be used in the particular assay. For instance, in the exemplified calcium imaging assays cells which express hT1R2/hT1R3-HEK293 G[…]15 cells were seeded in 384-well-clear bottom plates (Fisher) at a density of ˜50,000 cells/well and grown overnight at 37 degrees C. However, it is anticipated that these cell density conditions and/or cell culture devices potentially may be altered.
On the day of the experiment, cells were loaded with a commercially available calcium indicator dye Fluo3AM (2 uM) (Invitrogen) in D-PBS (Invitrogen) using a Multidrop (Titertek). (Again while Fluo3AM is exemplified it is anticipated that other known and available calcium indicators can be substituted therefore). […] After 30 minutes of rest time at room temperature, Fluo3AM-loaded cell plate, a compound plate and a sweetener plate were loaded into a Fluorometric Imaging Plate Reader (FLIPR, Molecular Devices). […] Imaging was initiated with the acquisition of the baseline fluorescence for a period of 7 to 10 seconds, and then cells were stimulated on line with addition of 25 µl/well of the compound plate (pre-incubation step). […]

In the case of `OC[C@H]1O[C@H](O[C@]2(CCl)O[C@H](CCl)[C@@H](O)[C@@H]2O)[C@H](O)[C@@H](O)[C@H]1Cl` [Sucralose], the EC50 is, setting by setting: (cells pre-incubated with S2423 (50 uM or 25 uM final)) 11 µM; (without S2423) 53 µM.
